Assay results taken from US8871934B2, “Fluorene compound and pharmaceutical use thereof” (Japan Tobacco Inc., priority 2008, dated 2014).
Read-outs that look alike come from different tables or passages of the source.

Target: human PDHK2 (hPDHK2) (Homo sapiens (Human), UniProt Q15119)
Assay: Inhibitory action of PDHK activity in vitro (kinase reaction, residual PDH activity measured)
Assay type: biochemical
Procedure: In the case of human PDHK2 (hPDHK2, Genbank Accession No. NM_002611), modified hPDHK2 cDNA wherein FLAG-Tag sequence is added to the N terminal by a polymerase linkage reaction was prepared based on hPDHK2 cDNA clone (pReceiver-M01/PDK2-GeneCopoeia), and cloned into a vector (pET17b-Novagen). The recombinant construct was transformed into Escherichia coli (DH5α-TOYOBO). The recombinant clones were identified, plasmid DNA was isolated and subjected to the DNA sequence analysis. One clone which had the expected nucleic acid sequence was selected for expression work.
During the assay, the hPDHK2 enzyme concentration was set to the minimal concentration at which PDH is inhibited the most.
0.05 U/mL PDH (porcine heart PDH complex, Sigma P7032) and 1.6 μg/mL hPDHK2 were mixed in a buffer (50 mmol/L 3-morpholinopropanesulfonic acid (pH 7.0), 20 mmol/L dipotassium hydrogen phosphate, 60 mmol/L potassium chloride, 2 mmol/L magnesium chloride, 0.4 mmol/L EDTA, and 0.2% Pluronic F-68, 2 mmol/L dithiothreitol), the mixture was incubated at 4° C. overnight to give PDH/hPDHK2 complex. The test compound was diluted with dimethyl sulfoxide (DMSO). PDH/hPDHK2 complex (20 μL), test compound (1.5 μL) and 3.53 μmol/L ATP (diluted with buffer, 8.5 μL) were added to a half area 96 well UV-transparent microplate (Corning 3679), and PDHK reaction was performed at room temperature for 45 min. Instead of the test compound, DMSO (1.5 μL) was added to a control well. DMSO (1.5 μL) was added instead of the test compound to a blank well for the measurement of the maximum rate of PDH reaction, and hPDHK2 was not added. Than, 10 μL of substrates (5 mmol/L sodium pyruvate, 5 mmol/L Coenzyme A, 12 mmol/L NAD, and 5 mmol/L thiamine pyrophosphate, diluted with buffer) was added. The mixture was incubated at room temperature for 90 min, and the residual PDH activity was measured. The absorbance at 340 nm before and after PDH reaction was measured on a microplate reader to detect NADH produced by the PDH reaction. The PDHK inhibitory rate (%) of the test compound was calculated from the formula [{(PDH activity of test compound—PDH activity of control)/PDH activity of blank—PDH activity of control)}×100]. The IC50 value was calculated from the concentrations of the test compound at two points enclosing 50% inhibition of the PDHK activity.

[1] = PDHK inhibitory activity, class symbol of IC50
[2] = read-out: PDHK inhibitory activity IC50
[3] = PDHK inhibitory activity (class symbol)
[4] = PDHK inhibitory activity IC50 (μmol/L)

IC50 [4] | SMILES | IC50 [1] | IC50 [2] | IC50 [3] | IC50 (class symbol of IC50, read-out: PDHK inhibitory activity)
– | O=C(c1ccc2c(c1)C(O)(C(F)(F)F)c1ccccc1-2)C1CCC1 (stereo not drawn) [compound 119] | > 1 µM | 1 µM | – | –
– | CC(C)Cn1cc(-c2cc(CO)c3c(c2)C(O)(C(F)(F)F)c2ccccc2-3)cn1 (stereo not drawn) [compound 649] | – | 0.037 µM | < 0.1 µM | –
– | O=C(O)CCCCOc1ccc2c(c1)C(O)(C(F)(F)F)c1ccccc1-2 (stereo not drawn) [compound 295] | 0.1 to 1 µM | 0.861 µM | – | –
– | Cn1cc(-c2cc(C(=O)N3CCCC3)cc3c2-c2ccccc2C3(O)C(F)(F)F)cn1 (stereo not drawn) [compound 356] | < 0.1 µM | 0.053 µM | – | –
– | Cc1cccc2c1-c1ccccc1C2(O)C(F)(F)F (stereo not drawn) [compound 2] | > 1 µM | 2.29 µM | – | –
– | Cc1cc(-c2cnn(CCCCC(=O)O)c2)c2c(c1)C(O)(C(F)(F)F)c1ccccc1-2 (single isomer, unassigned) [compound 606] | – | 0.028 µM | < 0.1 µM | –
– | CCOC(=O)c1cccc2c1-c1ccccc1C2(O)C(F)(F)F (stereo not drawn) [compound 48] | 0.1 to 1 µM | 0.639 µM | – | –
– | CC(C)Oc1ccc2c(c1)C(O)(C(F)(F)F)c1ccccc1-2 (stereo not drawn) [compound 110] | > 1 µM | 2.49 µM | – | –
– | CCn1cc(-c2cc(C(N)=O)c3c(c2)C(O)(C(F)(F)F)c2ccccc2-3)cn1 (stereo not drawn) [compound 530] | < 0.1 µM | 0.043 µM | – | –
– | O=C(c1cc(Br)c2c(c1)C(O)(C(F)(F)F)c1ccccc1-2)N1CCC1 (stereo not drawn) [compound 114] | < 0.1 µM | 0.051 µM | – | –
– | OC1(C(F)(F)F)c2ccccc2-c2c(Cl)cc(Cl)cc21 (stereo not drawn) [compound 21] | 0.1 to 1 µM | 0.302 µM | – | –
– | Cn1cc(-c2cc(OC(CO)CO)cc3c2-c2ccccc2C3(O)C(F)(F)F)cn1 (stereo not drawn) [compound 628] | – | 0.058 µM | < 0.1 µM | –
– | CC(=O)c1cccc2c1-c1ccccc1C2(O)C(F)(F)F (stereo not drawn) [compound 68] | 0.1 to 1 µM | 0.624 µM | – | –
– | CN(C)c1ccc2c(c1)C(O)(C(F)(F)F)c1ccccc1-2 (stereo not drawn) [compound 80] | > 1 µM | 8.25 µM | – | –
– | O=C(O)c1cc(-c2cncnc2)c2c(c1)C(O)(C(F)(F)F)c1ccccc1-2 (stereo not drawn) [compound 367] | – | > 1 µM | – | > 1 µM
– | COc1cc(-c2cnn(CC(C)(C)C(=O)O)c2)c2c(c1)C(O)(C(F)(F)F)c1ccccc1-2 (single isomer, unassigned) [compound 619] | – | 0.033 µM | < 0.1 µM | –
– | OC1(C(F)(F)F)c2ccccc2-c2ccc(N3CCNCC3)cc21 (stereo not drawn) [compound 164] | > 1 µM | 2.75 µM | – | –
0.019 µM | Cc1cc(-c2cnn(C(CO)(CO)CO)c2)c2c(c1)[C@@](O)(C(F)(F)F)c1ccccc1-2 [compound 707, (+)-2-hydroxymethyl-2-[4-(9-hydroxy-2-methyl-9-trifluoromethyl-9H-fluoren-4-yl)-pyrazol-1-yl]-propane-1,3-diol] | – | – | < 0.1 µM | –
– | OC1(C(F)(F)F)c2ccccc2-c2c(Br)cc(Cl)cc21 (stereo not drawn) [compound 272] | 0.1 to 1 µM | 0.342 µM | – | –
– | OCCc1ccc2c(c1)C(O)(C(F)(F)F)c1ccccc1-2 (stereo not drawn) [compound 405] | > 1 µM | 6.38 µM | – | –
– | Cc1ccc2c(c1)C(O)(C(F)(F)F)c1cccnc1-2 (stereo not drawn) [compound 16] | > 1 µM | 19.3 µM | – | –
– | NC(=O)c1ccc(-c2ccc3c(c2)C(O)(C(F)(F)F)c2ccccc2-3)cc1 (stereo not drawn) [compound 199] | 0.1 to 1 µM | 0.182 µM | – | –
– | O=C(c1cc(CO)c2c(c1)C(O)(C(F)(F)F)c1ccccc1-2)N1CCC1 (stereo not drawn) [compound 556] | < 0.1 µM | 0.053 µM | – | –
– | OC1(C(F)(F)F)c2ccccc2-c2c(Cl)cccc21 (stereo not drawn) [compound 6] | > 1 µM | 2.29 µM | – | –

IC50 [4] | SMILES | IC50 [1] | IC50 [2] | IC50 [3] | IC50 (class symbol of IC50, read-out: PDHK inhibitory activity)
– | O=C(O)C1CCN(c2ccc3c(c2)C(O)(C(F)(F)F)c2ccccc2-3)CC1 (stereo not drawn) [compound 222] | > 1 µM | 5.39 µM | – | –
– | CCNC(=O)c1ccc2c(c1)C(O)(C(F)(F)F)c1ccccc1-2 (stereo not drawn) [compound 315] | > 1 µM | 6.37 µM | – | –
– | CNC(=O)c1cccc(-c2ccc3c(c2)C(O)(C(F)(F)F)c2ccccc2-3)c1 (stereo not drawn) [compound 157] | 0.1 to 1 µM | 0.358 µM | – | –
– | NC(=O)C1CN(C(=O)c2ccc3c(c2)C(O)(C(F)(F)F)c2ccccc2-3)C1 (stereo not drawn) [compound 123] | 0.1 to 1 µM | 0.877 µM | – | –
– | Cn1cc(-c2cc(OCCC(=O)O)cc3c2-c2ccccc2C3(O)C(F)(F)F)cn1 (stereo not drawn) [compound 454] | < 0.1 µM | 0.064 µM | – | –
– | Cn1cc(-c2cc(OCC(=O)N3CC(CO)C3)cc3c2-c2ccccc2C3(O)C(F)(F)F)cn1 (stereo not drawn) [compound 439] | < 0.1 µM | 0.034 µM | – | –
– | Cn1cc(-c2cc(OCC(CO)CO)cc3c2-c2ccccc2C3(O)C(F)(F)F)cn1 (stereo not drawn) [compound 622] | – | 0.033 µM | < 0.1 µM | –
– | CC(C)Cc1cc(-c2cnn(C(CO)CO)c2)c2c(c1)C(O)(C(F)(F)F)c1ccccc1-2 (single isomer, unassigned) [compound 665] | – | 0.023 µM | < 0.1 µM | –
0.015 µM | CNC(=O)Cn1cc(-c2cc(C)cc3c2-c2ccccc2[C@]3(O)C(F)(F)F)cn1 (stereo in doubt) [compound 533] | < 0.1 µM | – | – | –
– | O=C(O)C1CN(C(=O)c2ccc3c(c2)C(O)(C(F)(F)F)c2ccccc2-3)C1 (stereo not drawn) [compound 121] | > 1 µM | 3.68 µM | – | –
– | O=C(O)CCCOc1cc(Br)c2c(c1)C(O)(C(F)(F)F)c1ccccc1-2 (stereo not drawn) [compound 404] | 0.1 to 1 µM | 0.195 µM | – | –
– | Cc1cccc2c1-c1ncccc1C2(O)C(F)(F)F (stereo not drawn) [compound 15] | > 1 µM | 16.3 µM | – | –
– | OCCn1cc(-c2cc(CO)cc3c2-c2ccccc2C3(O)C(F)(F)F)cn1 (stereo not drawn) [compound 620] | – | 0.065 µM | < 0.1 µM | –
– | Cc1nc(-c2cccc3c2-c2ccccc2C3(O)C(F)(F)F)no1 (stereo not drawn) [compound 274] | > 1 µM | 7.49 µM | – | –
– | NC(=O)C1CCCN1C(=O)c1ccc2c(c1)C(O)(C(F)(F)F)c1ccccc1-2 (stereo not drawn) [compound 176] | > 1 µM | 8.01 µM | – | –
– | O=C(c1ccc2c(c1)C(O)(C(F)(F)F)c1ccccc1-2)N1CC(O)C1 (stereo not drawn) [compound 79] | 0.1 to 1 µM | 0.696 µM | – | –
– | CN(CCOc1cc(-c2cnn(C)c2)c2c(c1)C(O)(C(F)(F)F)c1ccccc1-2)C(=O)C(C)(C)O (stereo not drawn) [compound 501] | < 0.1 µM | 0.032 µM | – | –
– | O=C(O)c1cccc(-c2ccc3c(c2)C(O)(C(F)(F)F)c2ccccc2-3)c1 (stereo not drawn) [compound 155] | 0.1 to 1 µM | 0.805 µM | – | –
– | COC(=O)COC1CN(C(=O)c2ccc3c(c2)C(O)(C(F)(F)F)c2ccccc2-3)C1 (stereo not drawn) [compound 115] | 0.1 to 1 µM | 0.417 µM | – | –
– | OC1(C(F)(F)F)c2ccccc2-c2ccc(OCC3CCCC3)cc21 (stereo not drawn) [compound 254] | > 1 µM | 1.13 µM | – | –
– | Cn1cc(-c2cc(OCCCc3nnn[nH]3)cc3c2-c2ccccc2C3(O)C(F)(F)F)cn1 (single isomer, unassigned) [compound 573] | < 0.1 µM | 0.018 µM | – | –
– | NC(=O)CCCOc1ccc2c(c1)C(O)(C(F)(F)F)c1ccccc1-2 (stereo not drawn) [compound 280] | > 1 µM | 1.51 µM | – | –
– | NC(=O)c1cc(-c2cncnc2)cc2c1-c1ccccc1C2(O)C(F)(F)F (stereo not drawn) [compound 658] | – | 0.071 µM | < 0.1 µM | –
– | CC(=O)N(C)C[C@H](O)COc1cc(-c2cnn(C)c2)c2c(c1)C(O)(C(F)(F)F)c1ccccc1-2 (stereo partly drawn) [compound 500] | < 0.1 µM | 0.031 µM | – | –
